The results in this text go back to patent US11053226B2, “KRAS G12C inhibitors and methods of using the same” (Amgen Inc., priority 2018, dated 2021).

Usually IC50 stands for the midpoint of a concentration-inhibition curve.

Each structure is given as a SMILES string. Like-named read-outs stand apart in the source and are kept apart here. A value given as a limit tells only on which side of the number the result lay.

For assay [1], the system named is Phosphorylation of ERK1/2 in A549 cells. Kind of assay: Phospho-ERK1/2 MSD Assay (A549). It counts as cell-based. As to conditions: Homo sapiens, A549, 4 h, read-out: pERK IC50 (4 h, A549), 4 h compound treatment.
Assay [2] concerns Phosphorylation of ERK1/2 in MIA PaCa-2 cells. Put plainly: Phospho-ERK1/2 MSD Assay. It counts as cell-based. As to conditions: Homo sapiens, MIA PaCa-2, 4 h, read-out: pERK IC50 (4 h, MiaPaCa-2), 4 h compound treatment; MiaPaCa-2 cells. The method, then:
(§1) For compounds in Table 9, the following assay conditions were employed:
Phospho-ERK1/2 MSD Assay:
Sixteen hours prior to compound treatment, MIA PaCa-2 cells were seeded in 96-well cell culture plates at a density of 25,000 cells/well and incubated at 37° C., 5% CO2. […] Following compound treatment, cells were stimulated with 10 ng/mL EGF (Roche 11376454001) for 10 min, washed with ice-cold Dulbecco's phosphate-buffered saline, no Ca^2+ or Mg^2+ (ThermoFisher Scientific 14190144), and then lysed in RIPA buffer (50 mM Tris-HCl pH 7.5, 1% Igepal, 0.5% sodium deoxycholate, 150 mM NaCl, and 0.5% sodium dodecyl sulfate) containing protease inhibitors (Roche 4693132001) and phosphatase inhibitors (Roche 4906837001). […] Assay plates were read on a Meso Scale Discovery Sector Imager 6000, and data were analyzed using a 4-parameter logistic model to calculate IC50 values.

Assay [3] addresses GDP-bound KRAS protein (aa 1-169), containing both G12C and C118A amino acid substitutions (Homo sapiens (Human), UniProt P01116, C118A/G12C). Kind of assay: Coupled Nucleotide Exchange Assay. Format: biochemical. How it is done:
as §1
Coupled Nucleotide Exchange Assay:
The assay plates were then read on a PerkinElmer EnVision Multilabel Reader, using AlphaScreen® technology, and data were analyzed using a 4-parameter logistic model to calculate IC50 values.

Setting [4] is: first Coupled Exchange column, compound pre-incubation probably 5 min (rest of head not shown; b435 lists 5 min, 2 hours or 20 hours), read-out: Coupled Exchange IC50.
Setting [5] is: third Coupled Exchange column, compound pre-incubation probably 20 hours (rest of head not shown; b435 lists 5 min, 2 hours or 20 hours), read-out: Coupled Exchange IC50.

Sequence of GDP-bound KRAS protein (aa 1-169), containing both G12C and C118A amino acid substitutions (P01116 other isoform, or with tags, fused parts or gaps G12C/C118A): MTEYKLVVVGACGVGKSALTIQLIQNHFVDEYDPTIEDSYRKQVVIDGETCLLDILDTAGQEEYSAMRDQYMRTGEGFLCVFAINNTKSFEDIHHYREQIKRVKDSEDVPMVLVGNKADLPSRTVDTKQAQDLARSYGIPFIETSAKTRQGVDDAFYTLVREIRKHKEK

For the compound `C=CC(=O)N1CC(NC(=O)Cn2c(C3CC3)c(C(=O)N3CCc4c(cccc4OC)C3)c3cc(Cl)cc(C)c32)C1` [Example 1-7, 2-(5-Chloro-2-cyclopropyl-3-((5-methoxy-3,4-dihydro-2(1H)-isoquinolinyl)carbonyl)-7-methyl-1H-indol-1-yl)-N-(1-(2-propenoyl)-3-azetidinyl)acetamide], in assay [1], the IC50 came to 60.4 µM.
On the same count and under the same terms, with `C=CC(=O)N1CC(NC(=O)Cn2c(C)c(C(=O)N3CCc4c(cccc4OC)C3)c3cc(Cl)cc(C)c32)C1` [Example 3-1, 2-(5-Chloro-3-((5-methoxy-3,4-dihydro-2(1H)-isoquinolinyl)carbonyl)-2,7-dimethyl-1H-indol-1-yl)-N-(1-(2-propenoyl)-3-azetidinyl)acetamide] the figure was over 100 µM.
For the compound `C=CC(=O)N1CC(N(C)C(=O)Cn2cc(C(=O)N3CCc4c(ccnc4OC)C3)c3c(Cl)c(Cl)ccc32)C1` [Example 7], the IC50 amounted to 1.33 µM in assay [2] and 0.45 µM in assay [3] (read-out: Coupled Exchange IC50 (2 h), 2 h compound pre-incubation).
As for `C=CC(=O)N1CC(NC(=O)Cn2c(C)c(C(=O)N3CCN(c4ccc(C#N)cn4)C[C@H]3C)c3cc(Br)ccc32)C1` [Example 16], the figures for the IC50 in assay [2] and in assay [1] were 1.79 µM and over 100 µM, respectively.
The like results for `C=CC(=O)N1CC(NC(=O)Cn2c(C3CC3)c(C(=O)N3CCC(C)(C)C3)c3cc(Cl)cc(C)c32)C1` [Example 20] were, in that order, 1.94 µM and over 100 µM.
As for `C=CC(=O)N1CC(NC(=O)Cn2c(C)c(C(=O)N3CCN(c4ccc(C)cn4)CC3)c3cc(Cl)cc(C)c32)C1` [Example 24], the IC50 in assay [1] is over 100 µM.
For `C=CC(=O)N1CC(NC(=O)Cn2c(C)c(C(=O)N3C(C)COCC3C)c3cc(Br)cc(C)c32)C1` (stereo not shown) [Example 26], the IC50 in assay [2] was 2.48 µM; in assay [1], over 33.3 µM.
The like results for `C=CC(=O)N1CC(NC(=O)Cn2c(C)c(C(=O)N3CCN(c4ccc(C)cn4)CC3)c3cc(Br)ccc32)C1` [Example 29] were, in that order, 2.66 µM and over 100 µM.
Take `C=CC(=O)N1CC(NC(=O)Cn2c(C3CC3)c(C(=O)N3CCOC(C)(c4ccccc4)C3)c3cc(Cl)cc(C)c32)C1` (stereo not shown) [Example 31]: the figures for the IC50 in assay [2] and in assay [1] were 2.7 µM and over 100 µM, respectively.
The like results for `C=CC(=O)N1CC(NC(=O)Cn2c(C)c(C(=O)N3CCN(c4ccc(Br)cn4)CC3)c3cc(Br)ccc32)C1` [Example 34] were, in that order, 3.06 µM and over 100 µM.
The like results for `C=CC(=O)N1CC(NC(=O)Cn2cc(C(=O)NCCOc3c(C)cccc3C)c3cc(Cl)cc(Cl)c32)C1` [Example 37] were, in that order, 3.33 µM and over 100 µM.
The like results for `C=CC(=O)N1CC(NC(=O)Cn2c(C)c(C(=O)N3CCN(c4ccc(C(F)(F)F)cn4)CC3)c3cc(Br)ccc32)C1` [Example 40] were, in that order, 3.42 µM and 44.6 µM.
In the case of `C=CC(=O)N1CC(N2CCC(n3c(C)c(C(=O)N4CCc5c(cccc5OC)C4)c4cc(Br)ccc43)C2=O)C1` (stereo not shown) [Example 42], the IC50 was 3.78 µM in assay [2] and over 33.3 µM in assay [1].
In the case of `C=CC(=O)N1CC(NC(=O)Cn2c(C)c(C(=O)N3CCc4c(cccc4OC)C3)c3cc(Br)ccc32)C1C` (stereo not shown) [Example 44], the IC50 in assay [1] was over 100 µM.
Take `C=CC(=O)N1CC(NC(=O)Cn2cc(C(=O)N3CCN(c4ccc(C)cn4)CC3)c3cc(Br)ccc32)C1` [Example 45]: the IC50 is 3.96 µM in assay [2] and over 100 µM in assay [1].
Take `C=CC(=O)N1CC(NC(=O)Cn2c(C)c(C(=O)N3CCN(c4ccc([N+](=O)[O-])cn4)CC3)c3cc(Br)ccc32)C1` [Example 46]: the half-inhibitory concentration (IC50) in assay [2] was 4.08 µM; in assay [1], over 100 µM.
The like results for `C=CC(=O)N1CC(N(C)C(=O)Cn2c(C)c(C(=O)N3CCN(c4ccc(C)cn4)CC3)c3cc(Br)ccc32)C1` [Example 47] were, in that order, 4.16 µM and over 100 µM.
The like results for `C=CC(=O)N1CC(NC(=O)Cn2cc(C(=O)N3CCN(c4cccc(C)n4)CC3)c3cc(Br)ccc32)C1` [Example 48] were, in that order, 4.56 µM and over 33.3 µM.
On to `C=CC(=O)N1CC(N2CC[C@@H](n3c(C)c(C(=O)N4CCc5c(cccc5OC)C4)c4cc(Br)ccc43)C2=O)C1` [Example 50], for which the IC50 in assay [2] was 4.81 µM; in assay [1] it was over 33.3 µM.
For the compound `C=CC(=O)N1CC(NC(=O)Cn2cc(C(=O)N3CCN(c4ccccn4)CC3)c3cc(Br)ccc32)C1` [Example 60], in assay [1], the IC50 was over 100 µM.
Turning to `C=CC(=O)N1CC(NC(=O)Cn2cc(C(=O)N3CCN(c4ncccc4C)CC3)c3cc(Br)ccc32)C1` [Example 61], the figures for the concentration for half-maximal inhibition (IC50) in assay [2] and in assay [1] were 7.06 µM and over 33.3 µM, respectively.
The like results for `C=CC(=O)N1CC(NC(=O)Cn2c(C)c(C(=O)N3CCOC(C)(C)C3)c3cc(Br)ccc32)C1` [Example 64] were, in that order, 7.74 µM and over 100 µM.
The like results for `C=CC(=O)N1CC(NC(=O)Cn2c(C)c(C(=O)C3CCc4ccccc4C3)c3cc(Br)ccc32)C1` (stereo not shown) [Example 65] were, in that order, 7.99 µM and 3.47 µM.
The like results for `C=CC(=O)N1CC(NC(=O)Cn2cc(C(=O)NCCOc3c(C)cccc3C)c3cc(Br)ccc32)C1` [Example 68] were, in that order, 8.81 µM and over 100 µM.
`C=CC(=O)N1CC(N(CC)C(=O)Cn2c(C)c(C(=O)N3CCc4ccccc4C3C)c3cc(Br)cc(C)c32)C1` (stereo not shown) [Example 72]: the IC50 was 10.6 µM in assay [2] and 63.4 µM in assay [1].
The like results for `C=CC(=O)N1CC(C)(NC(=O)Cn2c(C)c(C(=O)N3CCc4c(cccc4OC)C3)c3cc(Br)ccc32)C1` [Example 77] were, in that order, 11.6 µM and 10.2 µM.
`C=CC(=O)N1CC(NC(=O)Cn2cc(C(=O)N3CCc4c(cccc4OC)C3)c3cc(Br)cc(C)c32)C1` [Example 82]: in assay [1], the IC50 was over 100 µM.
Still for that read-out and setting: for `C=CC(=O)N1CC(NC(=O)Cn2cc(C(=O)N3CCc4c(Cl)cccc4C3)c3cc(Br)ccc32)C1` [Example 109] the value was 21.3 µM; for `C=CC(=O)N1CC(NC(=O)Cn2cc(C(=O)N3CCc4cc(F)ccc4C3)c3cc(Br)ccc32)C1` [Example 114], over 100 µM; for `C=CC(=O)N1CC(NC(=O)Cn2cc(C(=O)N3CCc4c(F)cccc4C3)c3cc(Br)ccc32)C1` [Example 118], over 100 µM.
On to `C=CC(=O)N1CC(NC(=O)Cn2cc(C(=O)N3CCc4ccccc4C3)c3cc(Br)ccc32)C1` [Example 129], for which the IC50 in assay [1] was over 100 µM.
Same read-out and setting: for `C=CC(=O)N1CC(NC(=O)Cn2cc(C(=O)NCCc3ccccc3)c3cc(Br)ccc32)C1` [Example 140] the value was over 100 µM; for `C=CC(=O)N1CC(NC(=O)Cn2cc(C(=O)N(C)Cc3ccccc3)c3cc(Br)ccc32)C1` [Example 155], over 100 µM.
Consider `C=CC(=O)N1CC(NC(=O)Cn2cc(C(=O)NCc3ccccc3)c3cc(Br)ccc32)C1` [Example 163], for which, in assay [1], the IC50 was over 100 µM.
For the compound `C=CC(=O)N1C[C@@H](NC(=O)Cn2ccc3cc(Br)ccc32)[C@H]1C` [Example 362], the IC50 in assay [3] (setting [4]) and in assay [3] (setting [5]) was over 250 µM in each case.
Turning to `C=CC(=O)N1C[C@H](NC(=O)Cn2ccc3cc(Br)ccc32)[C@@H]1C` [Example 363], the results for the 50% inhibitory concentration (IC50) in assay [3] (setting [4]) and in assay [3] (setting [5]) were over 250 µM and 2.22 µM, respectively.
The like results for `C=CC(=O)N1C[C@H](N(C)C(=O)Cn2ccc3cc(Br)ccc32)[C@@H]1C` [Example 364] were, in that order, over 250 µM and 8.14 µM.
